PubChem BioAssay (NCI)
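The concentration for 50% growth inhibition is given as GI50. TGI marks complete inhibition of growth.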

Assays:
Assay in all cases: NCI-60 cell line screen, 384-well format
[1] = tested on: NCI/ADR-RES ovarian
[2] = tested on: SW-620 colon
[3] = tested on: MDA-MB-468 breast
[4] = tested on: MDA-MB-231 breast
[5] = tested on: UACC-257 melanoma
[6] = tested on: NCI-H522 lung
[7] = tested on: A498 renal
[8] = tested on: RPMI-8226 leukemia
[9] = tested on: HCC-2998 colon
[10] = tested on: HL-60(TB) leukemia
[11] = tested on: MALME-3M melanoma
[12] = tested on: SK-MEL-28 melanoma
[13] = tested on: RXF 393 renal
[14] = tested on: HCT-116 colon
[15] = tested on: MOLT-4 leukemia
[16] = tested on: LOX IMVI melanoma
[17] = tested on: UACC-62 melanoma
[18] = tested on: U251 glioblastoma
[19] = tested on: OVCAR-8 ovarian
[20] = tested on: TK-10 renal
[21] = tested on: SK-MEL-5 melanoma
[22] = tested on: SNB-19 CNS
[23] = tested on: HOP-62 NSCLC
[24] = tested on: K-562 leukemia
[25] = tested on: UO-31 renal
[26] = tested on: SF-539 CNS
[27] = tested on: 786-0 renal
[28] = tested on: HS 578T breast
[29] = tested on: NCI-H322M lung

## COc1cc2c(Nc3ccc(Cl)c(Cl)c3F)ncnc2cc1OCC1C[C@@H]2CN(C)C[C@@H]2C1 (stereo partly drawn)
[1]
  GI50: 1400 nM
  TGI: 2800 nM
[2]
  GI50: 1560 nM
  TGI: 2900 nM
[3]
  GI50: 30.7 nM
  TGI: 162 nM
[4]
  GI50: 1180 nM
  TGI: 2470 nM
[5]
  GI50: 208 nM
  TGI: 409 nM
[6]
  GI50: 80.1 nM
  TGI: 1440 nM
[7]
  GI50: 940 nM
  TGI: 2150 nM
[8]
  GI50: 1390 nM
  TGI: 2680 nM
[9]
  GI50: 1480 nM
  TGI: 2810 nM
[10]
  GI50: 1670 nM
  TGI: 3030 nM
[11]
  GI50: 1160 nM
  TGI: 2380 nM
[12]
  GI50: 1450 nM
  TGI: 2770 nM
[13]
  GI50: 512 nM
  TGI: 1860 nM
[14]
  GI50: 1390 nM
  TGI: 2720 nM
[15]
  GI50: 1100 nM
  TGI: 2300 nM
[16]
  GI50: 1150 nM
  TGI: 2380 nM
[17]
  GI50: 1120 nM
  TGI: 2330 nM
[18]
  GI50: 1600 nM
  TGI: 2950 nM
[19]
  GI50: 1110 nM
  TGI: 2320 nM
[20]
  GI50: 156 nM
  TGI: 1230 nM
[21]
  GI50: 1220 nM
  TGI: 2460 nM
[22]
  GI50: 1410 nM
  TGI: 2740 nM
[23]
  GI50: 1310 nM
  TGI: 2590 nM
[24]
  GI50: 51 nM
  TGI: 181 nM
[25]
  GI50: 252 nM
  TGI: 1650 nM
[26]
  GI50: 1140 nM
  TGI: 2360 nM
[27]
  GI50: 710 nM
  TGI: 2030 nM
[28]
  GI50: 1080 nM
  TGI: 2280 nM
[29]
  GI50: 31.7 nM
  TGI: 366 nM
